Experimental data reported in patent publication US20060089378A1 (priority 2004, published 2006).
Where two headings read alike, the source gives them in different places.

Tests used:
Cannabinoid CB2 Receptor = target: T1, Cannabinoid CB2 Receptor (Homo sapiens, UniProt P34972); assay: Binding assay for CB2 agonists or inverse agonists (radioligand competition, membranes of transfected SK-N-MC cells); conditions: for inhibition at 0.2 µM: read-out: Cannabinoid CB2 Receptor Binding percent inhibition
T1 construct: expressed in transfected cells
T1 sequence (P34972 whole entry): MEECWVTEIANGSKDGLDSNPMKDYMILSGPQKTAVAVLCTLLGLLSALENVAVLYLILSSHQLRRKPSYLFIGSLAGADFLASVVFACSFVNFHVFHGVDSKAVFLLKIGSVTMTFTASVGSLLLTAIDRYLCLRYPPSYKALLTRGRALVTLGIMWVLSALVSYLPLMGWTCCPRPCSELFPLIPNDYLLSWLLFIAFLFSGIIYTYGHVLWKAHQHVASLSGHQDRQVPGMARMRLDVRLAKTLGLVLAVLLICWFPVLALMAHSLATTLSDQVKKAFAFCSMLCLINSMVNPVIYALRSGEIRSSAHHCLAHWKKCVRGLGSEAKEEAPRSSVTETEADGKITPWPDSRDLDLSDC

Cannabinoid CB1 Receptor = target: T2, Cannabinoid CB1 Receptor (Homo sapiens, UniProt P21554); assay: Binding assay for CB1 agonists or inverse agonists (radioligand competition, membranes of transfected SK-N-MC cells); conditions: for inhibition at 0.2 µM: read-out: Cannabinoid CB1 Receptor Binding percent inhibition
T2 construct: expressed in transfected cells
T2 sequence (P21554 whole entry): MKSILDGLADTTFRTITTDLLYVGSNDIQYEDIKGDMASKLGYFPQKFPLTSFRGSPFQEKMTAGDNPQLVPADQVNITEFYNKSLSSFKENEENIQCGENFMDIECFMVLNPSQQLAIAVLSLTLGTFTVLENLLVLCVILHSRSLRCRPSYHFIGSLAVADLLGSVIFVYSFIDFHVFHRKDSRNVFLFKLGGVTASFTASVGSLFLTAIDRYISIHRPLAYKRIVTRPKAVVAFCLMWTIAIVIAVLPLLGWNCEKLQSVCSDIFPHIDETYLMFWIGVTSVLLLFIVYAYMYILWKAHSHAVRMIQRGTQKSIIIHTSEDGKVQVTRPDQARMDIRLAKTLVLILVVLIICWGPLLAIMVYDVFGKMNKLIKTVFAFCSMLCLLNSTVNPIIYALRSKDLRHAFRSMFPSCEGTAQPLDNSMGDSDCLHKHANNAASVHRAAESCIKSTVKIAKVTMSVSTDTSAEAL

CB1 receptor (human) = CB1 receptor (human) (Homo sapiens, UniProt P21554); assay: cell-based; conditions: for CB1 Receptor Functional Activity (change in functional activity, CRE β-gal): one compound concentration, β-galactosidase activity relative to vehicle treated cells
CB1 receptor (human), sequence (P21554 whole entry): as above

[1] = test concentration of 0.2 μM, compounds without an IC50 binding value
[2] = human CB2, SK-N-MC cell membranes, calculated by linear regression from percent inhibition at various concentrations, read-out: Cannabinoid CB2 Receptor Binding IC50
[3] = human CB1, SK-N-MC cell membranes, calculated by linear regression from percent inhibition at various concentrations, read-out: Cannabinoid CB1 Receptor Binding IC50

## COC(=O)N1C/C(=C\c2ccc(OC)cc2)c2c(c(C(=O)N[C@H](C)c3ccccn3)nn2-c2ccc(Cl)cc2Cl)C1 [Cpd 96, (7E)-1-(2,4-dichloro-phenyl)-7-(4-methoxy-benzylidene)-3-[(1R)-1-pyridin-2-yl-ethylcarbamoyl]-1,4,6,7-tetrahydro-pyrazolo[4,3-c]pyridine-5-carboxylic acid methyl ester]
Cannabinoid CB2 Receptor
  inhibition at 0.2 µM: 56%
Cannabinoid CB1 Receptor
  IC50: 3 nM
CB1 receptor (human)
  EC50: 1 nM

## COc1ccc(/C=C2\CN(C(C)=O)Cc3c(C(=O)N[C@H](C)c4ccccn4)nn(-c4ccc(Cl)cc4Cl)c32)cc1 [Cpd 97, (7E)-5-acetyl-1-(2,4-dichloro-phenyl)-7-(4-methoxy-benzylidene)-4,5,6,7-tetrahydro-1H-pyrazolo[4,3-c]pyridine-3-carboxylic acid [(1R)-1-pyridin-2-yl-ethyl]-amide]
Cannabinoid CB2 Receptor; [1]
  inhibition at 0.2 µM: 33%
Cannabinoid CB1 Receptor
  IC50: 7 nM
CB1 receptor (human)
  EC50: 10 nM

## CCNC(=O)N1C/C(=C\c2ccc(OC)cc2)c2c(c(C(=O)N[C@H](C)c3ccccn3)nn2-c2ccc(Cl)cc2Cl)C1 [Cpd 98, (7E)-1-(2,4-dichloro-phenyl)-7-(4-methoxy-benzylidene)-1,4,6,7-tetrahydro-pyrazolo[4,3-c]pyridine-3,5-dicarboxylic acid 5-ethylamide 3-{[(1R)-1-pyridin-2-yl-ethyl]-amide}]
Cannabinoid CB2 Receptor
  inhibition at 0.2 µM: 17%
Cannabinoid CB1 Receptor
  IC50: 8 nM
CB1 receptor (human)
  EC50: 4 nM

## COc1ccc(/C=C2\CN(S(C)(=O)=O)Cc3c(C(=O)N[C@H](C)c4ccccn4)nn(-c4ccc(Cl)cc4Cl)c32)cc1 [Cpd 99, (7E)-1-(2,4-dichloro-phenyl)-5-methanesulfonyl-7-(4-methoxy-benzylidene)-4,5,6,7-tetrahydro-1H-pyrazolo[4,3-c]pyridine-3-carboxylic acid [(1R)-1-pyridin-2-yl-ethyl]-amide]
Cannabinoid CB2 Receptor
  inhibition at 0.2 µM: 32%
Cannabinoid CB1 Receptor
  IC50: 2 nM
CB1 receptor (human)
  EC50: 3 nM

## COC(=O)N1C/C(=C\c2ccc(OC)cc2)c2c(c(C(=O)NN3CC4CCCC4C3)nn2-c2ccc(Cl)cc2Cl)C1 (stereo not drawn) [Cpd 100, (7E)-1-(2,4-dichloro-phenyl)-3-(hexahydro-cyclopenta[c]pyrrol-2-ylcarbamoyl)-7-(4-methoxy-benzylidene)-1,4,6,7-tetrahydro-pyrazolo[4,3-c]pyridine-5-carboxylic acid methyl ester]
Cannabinoid CB2 Receptor
  inhibition at 0.2 µM: 63%
Cannabinoid CB1 Receptor
  IC50: 7 nM
CB1 receptor (human)
  EC50: 1 nM

## C[C@@H](NC(=O)c1nn(Cc2ccccc2)c2c1CN(C(=O)OC(C)(C)C)CC2)C1CCCCC1 [Cpd 103, 1-benzyl-3-[(1R)-1-cyclohexyl-ethylcarbamoyl]-1,4,6,7-tetrahydro-pyrazolo[4,3-c]pyridine-5-carboxylic acid tert-butyl ester]
Cannabinoid CB2 Receptor; [2]
  IC50: 900 nM
Cannabinoid CB1 Receptor; [3]
  IC50: 300 nM
CB1 receptor (human)
  CB1 Receptor Functional Activity (change in functional activity, CRE β-gal): 8%

## CC(C)(C)OC(=O)N1CCc2c(c(C(=O)N[C@H]3C4(C)CCC(C4)C3(C)C)nn2Cc2ccccc2)C1 (stereo partly drawn) [Cpd 104, 1-benzyl-3-[(2S)-1,3,3-trimethyl-bicyclo[2.2.1]hept-2-ylcarbamoyl]-1,4,6,7-tetrahydro-pyrazolo[4,3-c]pyridine-5-carboxylic acid tert-butyl ester]
Cannabinoid CB2 Receptor
  IC50: 20 nM
Cannabinoid CB1 Receptor; [3]
  IC50: 500 nM
CB1 receptor (human)
  CB1 Receptor Functional Activity (change in functional activity, CRE β-gal): −11%

## CC12CCC(C1)C(C)(C)[C@H]2NC(=O)c1nn(Cc2ccccc2)c2c1CNCC2 (stereo partly drawn) [Cpd 105, 1-benzyl-4,5,6,7-tetrahydro-1H-pyrazolo[4,3-c]pyridine-3-carboxylic acid [(2S)-1,3,3-trimethyl-bicyclo[2.2.1]hept-2-yl]-amide]
Cannabinoid CB2 Receptor
  IC50: 500 nM
Cannabinoid CB1 Receptor
  IC50: 200 nM
CB1 receptor (human)
  CB1 Receptor Functional Activity (change in functional activity, CRE β-gal): −18%

## CC(=O)N1CCc2c(c(C(=O)NC3C4(C)CCC(C4)C3(C)C)nn2Cc2ccccc2)C1 (stereo not drawn) [Cpd 109, 5-acetyl-1-benzyl-4,5,6,7-tetrahydro-1H-pyrazolo[4,3-c]pyridine-3-carboxylic acid (1,3,3-trimethyl-bicyclo[2.2.1]hept-2-yl)-amide]
Cannabinoid CB2 Receptor
  IC50: 80 nM
Cannabinoid CB1 Receptor
  IC50: 1300 nM
CB1 receptor (human)
  EC50: 8100 nM

## CC(C)(C)OC(=O)N1CCc2c(c(C(=O)NC3C4(C)CCC(C4)C3(C)C)nn2-c2ccccc2)C1 (stereo not drawn) [Cpd 111, 1-phenyl-3-(1,3,3-trimethyl-bicyclo[2.2.1]hept-2-ylcarbamoyl)-1,4,6,7-tetrahydro-pyrazolo[4,3-c]pyridine-5-carboxylic acid tert-butyl ester]
Cannabinoid CB2 Receptor
  IC50: 100 nM
Cannabinoid CB1 Receptor
  inhibition at 0.2 µM: 27%
CB1 receptor (human)
  CB1 Receptor Functional Activity (change in functional activity, CRE β-gal): 24%

## CC(=O)N1CCc2c(c(C(=O)NC3C4(C)CCC(C4)C3(C)C)nn2-c2ccccc2)C1 (stereo not drawn) [Cpd 112, 5-acetyl-1-phenyl-4,5,6,7-tetrahydro-1H-pyrazolo[4,3-c]pyridine-3-carboxylic acid (1,3,3-trimethyl-bicyclo[2.2.1]hept-2-yl)-amide]
Cannabinoid CB2 Receptor
  IC50: 100 nM
Cannabinoid CB1 Receptor; [1]
  inhibition at 0.2 µM: 44%
CB1 receptor (human)
  CB1 Receptor Functional Activity (change in functional activity, CRE β-gal): 45%

## CCOC(=O)N1CCc2c(c(C(=O)NC3C4(C)CCC(C4)C3(C)C)nn2-c2ccccc2)C1 (stereo not drawn) [Cpd 113, 1-phenyl-3-(1,3,3-trimethyl-bicyclo[2.2.1]hept-2-ylcarbamoyl)-1,4,6,7-tetrahydro-pyrazolo[4,3-c]pyridine-5-carboxylic acid ethyl ester]
Cannabinoid CB2 Receptor
  IC50: 80 nM
Cannabinoid CB1 Receptor
  IC50: 2300 nM
CB1 receptor (human)
  CB1 Receptor Functional Activity (change in functional activity, CRE β-gal): 57%

## CCNC(=O)N1CCc2c(c(C(=O)NC3C4(C)CCC(C4)C3(C)C)nn2-c2ccccc2)C1 (stereo not drawn) [Cpd 114, 1-phenyl-1,4,6,7-tetrahydro-pyrazolo[4,3-c]pyridine-3,5-dicarboxylic acid 5-ethylamide 3-[(1,3,3-trimethyl-bicyclo[2.2.1]hept-2-yl)-amide]]
Cannabinoid CB2 Receptor
  inhibition at 0.2 µM: 34%
Cannabinoid CB1 Receptor
  inhibition at 0.2 µM: 51%
CB1 receptor (human)
  CB1 Receptor Functional Activity (change in functional activity, CRE β-gal): 51%

## COC(=O)N1CCc2c(c(C(=O)NC3C4(C)CCC(C4)C3(C)C)nn2-c2ccccc2)C1 (stereo not drawn) [Cpd 115, 1-phenyl-3-(1,3,3-trimethyl-bicyclo[2.2.1]hept-2-ylcarbamoyl)-1,4,6,7-tetrahydro-pyrazolo[4,3-c]pyridine-5-carboxylic acid methyl ester]
Cannabinoid CB2 Receptor
  IC50: 90 nM
Cannabinoid CB1 Receptor
  IC50: 2700 nM
CB1 receptor (human)
  CB1 Receptor Functional Activity (change in functional activity, CRE β-gal): 81%

## CCCCn1nc(C(=O)NC2C3(C)CCC(C3)C2(C)C)c2c1CCN(C(=O)OC)C2 (stereo not drawn) [Cpd 116, 1-butyl-3-(1,3,3-trimethyl-bicyclo[2.2.1]hept-2-ylcarbamoyl)-1,4,6,7-tetrahydro-pyrazolo[4,3-c]pyridine-5-carboxylic acid methyl ester]
Cannabinoid CB2 Receptor
  inhibition at 0.2 µM: 53%
Cannabinoid CB1 Receptor
  IC50: 100 nM
CB1 receptor (human)
  EC50: 2900 nM

## CC12CCC(C1)C(C)(C)C2NC(=O)c1nn(C2CCCCC2)c2c1CNCC2 (stereo not drawn) [Cpd 118, 1-cyclohexyl-4,5,6,7-tetrahydro-1H-pyrazolo[4,3-c]pyridine-3-carboxylic acid (1,3,3-trimethyl-bicyclo[2.2.1]hept-2-yl)-amide]
Cannabinoid CB2 Receptor; [2]
  IC50: 1800 nM
Cannabinoid CB1 Receptor
  IC50: 800 nM
CB1 receptor (human)
  CB1 Receptor Functional Activity (change in functional activity, CRE β-gal): 4%

## CCC(=O)N1CCc2c(c(C(=O)NC3C4(C)CCC(C4)C3(C)C)nn2C2CCCCC2)C1 (stereo not drawn) [Cpd 122, 1-cyclohexyl-5-propionyl-4,5,6,7-tetrahydro-1H-pyrazolo[4,3-c]pyridine-3-carboxylic acid (1,3,3-trimethyl-bicyclo[2.2.1]hept-2-yl)-amide]
Cannabinoid CB2 Receptor
  IC50: 10 nM
Cannabinoid CB1 Receptor
  IC50: 600 nM
CB1 receptor (human)
  EC50: 900 nM
